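Interpolation was linear, between the two tested concentrations surrounding the appropriate level; five concentrations were tested over 48 hours in 96-well plates. GI50: concentration for 50% inhibition of growth.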 Calls of active or inactive are those of the source. No stated cut-off is given here; in the data, active = GI50 up to about 1.1 µM and inactive = higher.
Tests used:
Test in all cases: NCI-60 cell line screen, 48 h
UACC-257 = system: UACC-257
NCI-H522 = system: NCI-H522
EKVX = system: EKVX
NCI-H226 = system: NCI-H226
SK-OV-3 = system: SK-OV-3
SR = system: SR
HCT-116 = system: HCT-116
Malme-3M = system: Malme-3M
ACHN = system: ACHN
HOP-62 = system: HOP-62
786-0 = system: 786-0
UO-31 = system: UO-31
KM12 = system: KM12
OVCAR-3 = system: OVCAR-3
SNB-75 = system: SNB-75
SN12C = system: SN12C

Measured: GI50

COC(=O)C1C=CCC2CCCCC21N1CCCC1 (stereo not drawn)
inactive: UACC-257 > 100 µM | NCI-H522 53.8 µM | EKVX > 100 µM | NCI-H226 87.7 µM | SK-OV-3 > 100 µM | SR 76.7 µM | HCT-116 46.1 µM | Malme-3M > 100 µM | ACHN > 100 µM | HOP-62 > 100 µM | 786-0 > 100 µM | UO-31 > 100 µM | KM12 53.6 µM | OVCAR-3 49.4 µM | SNB-75 44 µM | SN12C 78.5 µM

COc1ccc2c(c1)c1c3n2CCNN=C3CCC1
inactive: UACC-257 > 53.8 µM | NCI-H522 21.5 µM | EKVX > 100 µM | NCI-H226 > 100 µM | SK-OV-3 > 75.2 µM | SR 10.4 µM | HCT-116 99.5 µM | Malme-3M > 100 µM | ACHN 72.4 µM | HOP-62 > 74.3 µM | 786-0 > 100 µM | UO-31 > 43.7 µM | KM12 > 100 µM | OVCAR-3 > 100 µM | SNB-75 48.6 µM | SN12C > 61.7 µM

CC(C)NC(C)Cc1ccccc1 (stereo not drawn)
inactive: UACC-257 > 100 µM | NCI-H522 > 100 µM | EKVX > 100 µM | NCI-H226 > 100 µM | SK-OV-3 > 100 µM | SR > 100 µM | HCT-116 > 100 µM | Malme-3M > 100 µM | ACHN > 100 µM | HOP-62 > 100 µM | 786-0 > 100 µM | UO-31 > 100 µM | KM12 > 100 µM | OVCAR-3 > 100 µM | SNB-75 > 100 µM | SN12C > 100 µM

Oc1cc(-c2ccccc2)c2ccccc2n1
inactive: UACC-257 61 µM | NCI-H522 20.9 µM | NCI-H226 25.8 µM | SK-OV-3 20.5 µM | SR 45.5 µM | HCT-116 64.7 µM | Malme-3M 24.9 µM | ACHN 33.4 µM | HOP-62 28.2 µM | 786-0 > 100 µM | UO-31 15.1 µM | KM12 71.4 µM | SNB-75 13 µM | SN12C 30.9 µM

Oc1cc(C2OCCCO2)cc(O)c1O
inactive: UACC-257 > 100 µM | NCI-H522 > 100 µM | EKVX > 100 µM | NCI-H226 > 100 µM | SK-OV-3 > 100 µM | SR > 100 µM | HCT-116 > 100 µM | Malme-3M > 100 µM | ACHN > 100 µM | HOP-62 > 100 µM | 786-0 > 100 µM | UO-31 > 100 µM | KM12 > 100 µM | OVCAR-3 > 100 µM | SNB-75 > 100 µM | SN12C > 100 µM

CCOC(=O)C1=C(Nc2ccc(Br)cc2)OC/C1=N\NC(=O)c1ccccc1O
inactive: UACC-257 23 µM | NCI-H522 7.98 µM | EKVX 18.8 µM | NCI-H226 38.9 µM | SK-OV-3 12.8 µM | SR 9.06 µM | HCT-116 10.1 µM | Malme-3M 35.4 µM | ACHN 5.13 µM | HOP-62 11.2 µM | 786-0 15 µM | UO-31 9.71 µM | KM12 21.5 µM | OVCAR-3 21.4 µM | SN12C 52.4 µM

O=C(O)C1C2CCC(O2)C1C(=O)N1CCCCC1 (stereo not drawn)
inactive: UACC-257 17.2 µM | NCI-H522 4.88 µM | EKVX 4.02 µM | NCI-H226 5.09 µM | SK-OV-3 15.7 µM | SR 3.68 µM | HCT-116 10.2 µM | Malme-3M 10.6 µM | ACHN 4.54 µM | HOP-62 12.7 µM | 786-0 4.16 µM | UO-31 19.9 µM | KM12 16.2 µM | OVCAR-3 1.93 µM | SNB-75 4.51 µM | SN12C 2.57 µM

CCOC(=O)NC(=O)c1cn(-c2ccc(CCOC(=O)NCCCCCCNC(=O)OCCc3ccc(-n4c(=O)[nH]cc(C(=O)NC(=O)OCC)c4=O)cc3)cc2)c(=O)[nH]c1=O
inactive: UACC-257 > 72.8 µM | NCI-H522 22.4 µM | EKVX 53.2 µM | SK-OV-3 47.6 µM | SR > 62.8 µM | HCT-116 > 100 µM | Malme-3M 50 µM | ACHN 29.4 µM | HOP-62 37.6 µM | 786-0 48.5 µM | UO-31 > 65.8 µM | KM12 > 100 µM | OVCAR-3 > 100 µM | SNB-75 27.5 µM | SN12C > 100 µM

CCOC(=O)NN(C(=O)OCC)C(C(=O)c1ccc(Cl)cc1)=C1NCCN1
inactive: UACC-257 > 100 µM | NCI-H522 > 100 µM | EKVX > 100 µM | NCI-H226 > 100 µM | SK-OV-3 > 100 µM | SR > 100 µM | HCT-116 > 100 µM | Malme-3M > 100 µM | ACHN > 100 µM | HOP-62 > 100 µM | 786-0 > 100 µM | UO-31 > 100 µM | KM12 > 100 µM | OVCAR-3 > 100 µM | SNB-75 52.4 µM | SN12C > 100 µM

[N-]=[N+]=Nc1ccc(CCN2CCN(c3cccc(C(F)(F)F)c3)CC2)cc1I
inactive: UACC-257 96.8 µM | NCI-H522 27.7 µM | EKVX > 100 µM | NCI-H226 > 100 µM | SK-OV-3 > 100 µM | SR 35.1 µM | HCT-116 71.1 µM | Malme-3M > 100 µM | ACHN > 100 µM | 786-0 > 100 µM | UO-31 21.1 µM | KM12 43.8 µM | OVCAR-3 78.9 µM | SNB-75 41.7 µM | SN12C 49 µM

O=C(O)c1ccc(S(=O)(=O)c2ccccc2)c([N+](=O)[O-])c1
inactive: UACC-257 > 100 µM | NCI-H522 > 100 µM | EKVX > 100 µM | NCI-H226 > 100 µM | SK-OV-3 > 100 µM | SR > 100 µM | HCT-116 > 100 µM | Malme-3M > 100 µM | ACHN > 100 µM | HOP-62 > 100 µM | 786-0 > 100 µM | UO-31 > 100 µM | KM12 > 100 µM | OVCAR-3 > 100 µM | SNB-75 > 100 µM | SN12C > 100 µM

CCOC(=O)[C@H](CCCNC(=O)OC(C)(C)C)NCc1ccc(OC)c(OC)c1
inactive: UACC-257 > 100 µM | NCI-H522 > 100 µM | EKVX > 100 µM | NCI-H226 > 100 µM | SK-OV-3 > 100 µM | SR > 100 µM | HCT-116 > 100 µM | Malme-3M > 100 µM | ACHN > 100 µM | HOP-62 > 100 µM | 786-0 > 100 µM | UO-31 > 100 µM | KM12 > 100 µM | OVCAR-3 > 100 µM | SNB-75 > 100 µM | SN12C > 100 µM

O=C(NC1C=Nc2ccccc2NC1=O)c1ccccc1Cl (stereo not drawn)
inactive: UACC-257 38.5 µM | NCI-H522 20.1 µM | EKVX 74.8 µM | NCI-H226 94 µM | SK-OV-3 > 100 µM | SR 31.8 µM | HCT-116 39.1 µM | Malme-3M 58.1 µM | ACHN 39.6 µM | HOP-62 > 100 µM | 786-0 56 µM | UO-31 24.9 µM | KM12 50.7 µM | OVCAR-3 28.4 µM | SNB-75 50 µM | SN12C 64.4 µM

Source: ChEMBL document CHEMBL1201862, “PubChem BioAssay data set” (2004)
